# Measured values from patent publication US20100158808A1, “Altered Activity of Toll-Like Receptors” (priority 2003, published 2010).
# Legend:
# TLR4 = experiment: Serum TNF-α after i.p. injection in mice, ELISA; type: in vivo
# Method: Cytokine Quantification. Age-matched female mice were injected in the peritoneum with 0.5 U of elastase, 5 mg of HS, 200 U of heparin, 150 μg of CpG DNA, or PBS with a total volume of 250 μl. One hour and 3 hours after injection, 100-μl blood samples were collected from the tail vein. Cell supernatants and serum samples were immediately frozen at −20° C. until analysis. Concentrations of TNF-α were analyzed by enzyme-linked sandwich ELISA (R&D Systems, Minneapolis, Minn.).
# mice = experiment: Experimental shock model (SIRS), D-galactosamine, i.p. injection; type: in vivo; details: for Death / SIRS in shock model: TLR4-mutant mice; for Death / SIRS in shock model / Death in shock model: i.p. with D-galactosamine; for Death in shock model: TLR4 wild-type mice
# Method: Experimental shock model. Age- and sex-matched mice were injected with 5 mg of HS, 5 μg of LPS, 5 μg of Limulus anti-LPS factor, 5 mg of chondroitin sulfate, 200 U (−5 mg) heparin, 150 μg of CpG DNA, 1.5 U of elastase, or PBS mixed with 20 mg of D-galactosamine in a total volume of 500 μl of PBS by i.p. injection as previously described (Franks et al. (1991) Infect. Immun. 59:2609). Concentrations of HS and elastase were calculated by weight of lyophilized powder, and the doses used were near the LD50 based on dose-response experiments. In some experiments, the agonist was mixed with 5 or 20 μg of Limulus anti-LPS factor before injection. For some injections, enzymes were boiled at 100° C. for 60 minutes and vortexed vigorously, or preincubated with elastase inhibitor-1 for 4 hours at room temperature and then mixed with D-galactosamine before injection. Mice were monitored every hour for 48 hours and then euthanized.
# During sepsis, Gram-negative bacteria shed LPS, which activates TLR4 on cells that then release inflammatory cytokines mediating systemic inflammation and death (Beutler (2000) Curr. Opin. Immunol. 12:20). To determine whether soluble HS can induce a model of systemic inflammatory response syndrome (SIRS) via activation of TLR4 in mice, HS was administered by i.p. injection to TLR4 wild type and mutant mice. This mouse model system has been used to study shock and a sepsis-like syndrome in response to microbial toxins (Galanos et al. (1979) Proc. Natl. Acad. Sci. USA 76:5939). […] Moreover, the observed responses were not due to contamination of HS by LPS, since the HS used was not contaminated with LPS.
# TLR4/MD2 complex = biological target: T1, TLR4/MD2 complex (Mus musculus, UniProt Q9JHF9+Q9QUK6); experiment: Cell surface expression of TLR4/MD2 in HEK/TLR4(+) cells by flow cytometry; type: cell-based, murine
# T1 construct: expressed in transfected cells; host or cells: HEK 293 clone HEK/TLR4(+)
# T1 sequence (Q9QUK6 26-835): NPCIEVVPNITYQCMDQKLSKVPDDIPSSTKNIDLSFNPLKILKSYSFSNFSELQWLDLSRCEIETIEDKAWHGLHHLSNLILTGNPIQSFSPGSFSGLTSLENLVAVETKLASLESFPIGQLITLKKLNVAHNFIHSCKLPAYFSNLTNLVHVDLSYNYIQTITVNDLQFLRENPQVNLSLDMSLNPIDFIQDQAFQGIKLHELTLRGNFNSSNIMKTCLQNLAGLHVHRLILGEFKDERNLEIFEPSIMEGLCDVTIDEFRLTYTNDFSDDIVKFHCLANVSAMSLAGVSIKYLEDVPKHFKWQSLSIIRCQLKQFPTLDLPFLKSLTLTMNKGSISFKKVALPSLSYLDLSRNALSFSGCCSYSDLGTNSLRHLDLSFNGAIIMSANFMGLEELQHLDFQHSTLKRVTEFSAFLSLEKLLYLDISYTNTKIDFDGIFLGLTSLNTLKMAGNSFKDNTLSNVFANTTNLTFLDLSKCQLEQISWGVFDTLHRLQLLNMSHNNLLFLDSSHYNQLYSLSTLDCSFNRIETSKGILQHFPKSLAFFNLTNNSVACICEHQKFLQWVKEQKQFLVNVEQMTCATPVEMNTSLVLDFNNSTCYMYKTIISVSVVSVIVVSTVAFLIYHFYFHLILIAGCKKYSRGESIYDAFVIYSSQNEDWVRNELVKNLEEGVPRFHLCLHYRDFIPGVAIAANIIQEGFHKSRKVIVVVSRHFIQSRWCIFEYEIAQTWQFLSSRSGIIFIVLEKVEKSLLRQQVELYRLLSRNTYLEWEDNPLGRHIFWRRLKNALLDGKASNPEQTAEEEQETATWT
# T1 sequence (Q9JHF9 19-160): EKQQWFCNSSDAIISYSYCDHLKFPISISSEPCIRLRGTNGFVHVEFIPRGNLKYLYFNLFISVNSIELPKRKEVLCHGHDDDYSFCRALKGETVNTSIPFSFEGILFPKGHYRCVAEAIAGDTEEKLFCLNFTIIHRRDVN
# Method: FIG. 2A is a graph plotting the level of reporter activity in HEK/TLR4(+) cells transfected with NFκB- and control-luciferase reporter plasmids and then stimulated with intact HS or LPS, or with HS or LPS that had been treated with nitrous acid (HNO2) at pH 4.0 or pH 1.5. Controls were treated with PBS vehicle. […] FIG. 2C is a graph showing the effect of PBS, HS, depolymerized HS (nitrous acid, pH 1.5), and recombinant human IL-1α on cell surface expression of TLR4/MD2 in HEK/TLR4(+) cells. Expression of TLR4 on the cell surface was determined by flow cytometry using a monoclonal antibody specific to the TLR4/MD2 complex. Values are the mean of triplicate wells and are representative of three separate experiments.
# To determine whether the effect of HS occurred through specific action on TLR4, surface expression of the TLR4/MD2 complex on cells treated with HS was examined. […] Thus, HEK/TLR4(+) cells responded to HS by activating NFκB and mobilizing receptor complexes.
# [1] = TLR4-mutant mice, up to 3 hours
# [2] = wild-type mice, 1 hour after treatment
Substance,Serum TNF-α (TLR4; [1]),Serum TNF-α (TLR4; [2]),Death / SIRS in shock model (mice),"Percent death after injection of elastase in SIRS shock model, TLR4 Mutant (%) (mice; TLR4 mutant mice)","Percent death after injection of elastase in SIRS shock model, TLR4 Wild Type (%) (mice; TLR4 wild type mice)",Death in shock model (mice),Decrease in surface expression of TLR4/MD2 (TLR4/MD2 complex) [%],Change in surface expression of TLR4/MD2 (TLR4/MD2 complex)
"elastase: pancreatic elastase (Calbiochem; type IV porcine pancreatic elastase, Sigma-Aldrich), protease that cleaves ECM proteins",not detectable,high serum levels of TNF-α,no TLR4 mutant mice died,0,50,Fifty percent,,
heparan sulfate [HS],not detectable,high serum levels of TNF-α,no TLR4-mutant mice injected with HS died,,,eighty percent,60,
lipopolysaccharide [LPS],,,,,,died,,a decrease similar to that induced by LPS
